The assay concerns arthritis in gp130^F759/F759 mice. The assay can be described thus: Screening test for anti-arthritis agents in gp130F759/F759 mice. Type of assay: in vivo, mouse. The conditions noted are these: for arthritis score: gp130^F759/F759 mice developing arthritis, methotrexate 0.4 mg/kg orally five days in a week from age of 9 months. As for the experimental part:
gp130^F759/F759 mice or mice obtained by backcrossing of the gp130^F759/F759 mice (gp130^F759/F759-related mice) were used as a model mouse. A test compound of antirheumatic drugs such as bucilamine and methotrexate, nonsteroidal anti-inflammatory drugs such as diclofenac, or steroidal drugs such as dexamethasone was administered. The administration was conducted before the onset of immune disorders or arthritis for screening of prophylactic drugs, whereas after the observation of visible arthritis for screening of therapeutic drugs. The following is to illustrate the screening test for anti-arthritic agents using methotrexate as a test compound, and screening tests for other compounds would be conducted according to a similar manner to the following.
Methotrexate was administered orally at a dose of 0.4 mg/kg to the mice at the aged of 9 months for five days in a week. […] The severity of arthritis was scored based on restricted range of motion, swelling and flare of digit joints, and the presence or absence of rigidity. The mice whose arthritis conditions were observed constantly for two weeks or more were estimated as developed animal, and incident and severity were determined with time course.

Structures are written as SMILES.

From US7214494B2, “Method of screening for substance preventing or treating diseases in association with malfunction of IL-6 family cytokine receptor malfunction” (Saten Pharmaceutical Co., Ltd., priority 2000, dated 2007) come the findings set out here.

For the compound `CN(Cc1cnc2nc(N)nc(N)c2n1)c1ccc(C(=O)N[C@@H](CCC(=O)O)C(=O)O)cc1` [methotrexate], the arthritis score (aged 48 weeks (12-month-old), control 4.33±1.86) worked out at 1.33±0.33 and the arthritis score (aged 53 weeks, control 4.67±0.67) was found to be 0.67±0.33. Moreover, the “effect on arthritis in the mouse model” value (gp130^F759/F759 mice, 0.4 mg/kg orally) is “inhibits the arthritis”.
